Test results reported in PubChem BioAssay (NCI).
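Test compounds were applied to cells in 96-well plates for 48 hours at 5 doses. Here, GI50 denotes the concentration required for 50% inhibition of growth. TGI denotes the concentration required for complete inhibition of growth.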

What was measured:
Experiment in all cases: NCI anticancer screen, dose series, 48 h
HCT-116 colon = tested on: HCT-116 colon
SN12C renal = tested on: SN12C renal
HOP-62 NSCLC = tested on: HOP-62 NSCLC
SNB-75 CNS = tested on: SNB-75 CNS
BT-549 breast = tested on: BT-549 breast
SF-268 CNS = tested on: SF-268 CNS
M14 melanoma = tested on: M14 melanoma
RXF 393 renal = tested on: RXF 393 renal
TK-10 renal = tested on: TK-10 renal
SK-MEL-2 melanoma = tested on: SK-MEL-2 melanoma
UACC-62 melanoma = tested on: UACC-62 melanoma
HCC-2998 colon = tested on: HCC-2998 colon
HT29 colon = tested on: HT29 colon
DU-145 prostate = tested on: DU-145 prostate
ACHN renal = tested on: ACHN renal
SW-620 colon = tested on: SW-620 colon
RPMI-8226 leukemia = tested on: RPMI-8226 leukemia
SNB-19 CNS = tested on: SNB-19 CNS
EKVX NSCLC = tested on: EKVX NSCLC
SK-MEL-28 melanoma = tested on: SK-MEL-28 melanoma
NCI-H460 lung = tested on: NCI-H460 lung
UACC-257 melanoma = tested on: UACC-257 melanoma
HOP-92 NSCLC = tested on: HOP-92 NSCLC
CCRF-CEM leukemia = tested on: CCRF-CEM leukemia
CAKI-1 renal = tested on: CAKI-1 renal
UO-31 renal = tested on: UO-31 renal
HL-60(TB) leukemia = tested on: HL-60(TB) leukemia
OVCAR-8 ovarian = tested on: OVCAR-8 ovarian
OVCAR-5 ovarian = tested on: OVCAR-5 ovarian

`COc1ccc2c(CN3CCCC[C@H]3O)cc3cc4c(cc3c2c1)OCO4` gave a GI50 (HCT-116 colon) of 0.223 µM, a TGI (HCT-116 colon) of 10.7 µM and a GI50 (SN12C renal) of 0.326 µM. It also gave a TGI (SN12C renal) of 4.06 µM, a GI50 (HOP-62 NSCLC) of 0.541 µM and a TGI (HOP-62 NSCLC) of 3.52 µM. The GI50 (SNB-75 CNS) was 0.5 µM, the TGI (SNB-75 CNS) was 1.86 µM and the GI50 (BT-549 breast) was 1.21 µM. For the same compound, the TGI (BT-549 breast) was 4.5 µM, the GI50 (SF-268 CNS) was 0.417 µM and the TGI (SF-268 CNS) was 5.74 µM. For the same compound, the GI50 (M14 melanoma) was 0.319 µM, the TGI (M14 melanoma) was 1.15 µM and the GI50 (RXF 393 renal) was 0.191 µM. It also gave a TGI (RXF 393 renal) of 0.95 µM, a GI50 (TK-10 renal) of 0.702 µM and a TGI (TK-10 renal) of 6.97 µM. The GI50 (SK-MEL-2 melanoma) was 0.291 µM, the TGI (SK-MEL-2 melanoma) was 0.889 µM and the GI50 (UACC-62 melanoma) was 0.247 µM. For the same compound, the TGI (UACC-62 melanoma) was 0.712 µM, the GI50 (HCC-2998 colon) was 0.337 µM and the TGI (HCC-2998 colon) was 1.48 µM. The GI50 (HT29 colon) was 0.274 µM, the TGI (HT29 colon) was 1.93 µM and the GI50 (DU-145 prostate) was 0.475 µM. For the same compound, the TGI (DU-145 prostate) was 7.24 µM, the GI50 (ACHN renal) was 0.222 µM and the TGI (ACHN renal) was 2.36 µM. For the same compound, the GI50 (SW-620 colon) was 0.31 µM, the TGI (SW-620 colon) was 4.65 µM and the GI50 (RPMI-8226 leukemia) was 0.298 µM. The TGI (RPMI-8226 leukemia) was 1.32 µM, the GI50 (SNB-19 CNS) was 0.445 µM and the TGI (SNB-19 CNS) was 7.45 µM. The GI50 (EKVX NSCLC) was 0.817 µM, the TGI (EKVX NSCLC) was 9.44 µM and the GI50 (SK-MEL-28 melanoma) was 0.329 µM. It also gave a TGI (SK-MEL-28 melanoma) of 1.31 µM, a GI50 (NCI-H460 lung) of 0.295 µM and a TGI (NCI-H460 lung) of 10.4 µM. For the same compound, the GI50 (UACC-257 melanoma) was 0.237 µM, the TGI (UACC-257 melanoma) was 0.737 µM and the GI50 (HOP-92 NSCLC) was 0.241 µM. It also gave a TGI (HOP-92 NSCLC) of 2.4 µM, a GI50 (CCRF-CEM leukemia) of 0.528 µM and a TGI (CCRF-CEM leukemia) of 4.07 µM. For the same compound, the GI50 (CAKI-1 renal) was 0.518 µM, the TGI (CAKI-1 renal) was 5.66 µM and the GI50 (UO-31 renal) was 0.31 µM. For the same compound, the TGI (UO-31 renal) was 5.67 µM, the GI50 (HL-60(TB) leukemia) was 0.351 µM and the TGI (HL-60(TB) leukemia) was 1.35 µM. It also gave a GI50 (OVCAR-8 ovarian) of 0.268 µM, a TGI (OVCAR-8 ovarian) of 3.94 µM and a GI50 (OVCAR-5 ovarian) of 0.489 µM. It also gave a TGI (OVCAR-5 ovarian) of 14.1 µM.
